How the values were obtained:
[1] = Solubilization of single-walled carbon nanotube; assay type: physicochemical; conditions: in water; estimated from absorbance at 500 nm
Experimental: Preliminary dispersion was performed by dispersing 1.0 mg of a single-walled carbon nanotube (SWNT) (Carbon Nanotechnology, Inc.) in 0.5 mL of DMSO, and performing ultrasonic irradiation. An amount of 1.0 mL of AQUA β (DAISO Co., Ltd.) in a DMSO solution (2.0 mg/mL) was added and ultrasonic irradiation was further performed for 1 hour. The obtained dispersion was added to 1.5 mL of distilled water. To the dispersion, 35 mL of distilled water was further added and the solution was allowed to stand for one day to renature the AQUA β. It was observed by visual inspection that the solution was uniform at that point. Centrifugation (8,000 rpm, 60 minutes) was performed to recover the complex as a precipitate, the supernatant was removed, and the precipitate was redispersed in distilled water. This procedure was repeated 3 times for removal of uncombined polysaccharides and replacement of the solvent with water. Thus a solution in which the SWNT was dispersed in 5 mL of distilled water was obtained.
From the absorbance at 500 nm (Abs500=0.575), the concentration of the dissolved SWNT is estimated at […]. […] The improvement in the dispersibility seems to be attributed to the fact that AQUA β has a higher proportion of side chains than sizofuran.

[2] = Water solubilization of m-carborane by high speed vibration milling; assay type: physicochemical
Experimental: m-carborane was mixed with AQUA β (DAISO Co., Ltd.) or sizofuran (SPG) (Mitsui Sugar Co., Ltd.) in the predetermined amounts shown in Table 3 below. The mixture was placed with an agate milling ball in an agate milling jar, and high speed milling was performed with a mixer mill (MM200, Retsch Co., Ltd.) at 25 Hz for 25 minutes. Next, 10,000 parts by weight of water was added to 1 part by weight of the mixture, and the mixture was stirred with a magnetic stirrer at room temperature for two days and further agitated with a vortex mixer for 2 hours. Centrifugation (25° C., 14,000 rpm, 20 minutes) was performed, and the supernatant was filtrated through a 0.45 μm membrane filter. The boron concentration of the filtrate was measured with an ICP atomic emission spectrometer for evaluation of the degree of water solubility.

| Substance | Concentration of the dissolved SWNT [1] [µg/mL] | Boron concentration relative to solution prepared using sizofuran [2] [times] |
| --- | --- | --- |
| sizofiran | 2500 |  |
| β-1,3-1,6-D-glucan [AQUA β] |  | ≥ 3 |

— patent US8907080B2, “Process for imparting water solubility or water dispersibility to hydrophobic cluster compound” (Daiso Co., Ltd., priority 2009, dated 2014)
